The source of these data is patent publication US7090790B2, “Chemiluminescent composition producing white light” (priority 2004, dated 2006).

Data set [1] can be described thus: Solubility in chloroform at 20° C., Formula 2 vs Formula 3. The class given is physicochemical. As to conditions: in 100 mL of chloroform at 20° C.
A short description of data set [2]: Intensity of white light, Experimental Example 2 (−25° F.). As to conditions: low temperature. As to the method:
The oxalate solutions and the activator solutions prepared in Examples 1 and 2, and Comparative Examples 1 and 2 were mixed in a volume ratio of 3:1 to chemiluminescent compositions, respectively.
The procedure was repeated in the same manner as in Experimental Example 1, except that the temperature of the thermostat was set to −25° F.

Turning to `CCCCCCN1C(=O)c2cc(Cl)c3c4c(Cl)cc5c6c(cc(Cl)c(c7c(Cl)cc(c2c37)C1=O)c64)C(=O)N(CCCCCC)C5=O` [Hexyl (Formula 3), N,N′-dihexyl-1,6,7,12-tetrachloroperylene-3,4,9,10-dicarboximide], in data set [1], the “Solubility, 1,6,7,12-tetrahaloperylenedicarboximide of Formula 3 (X is Cl)” value is reported as 72 g.
Consider `CCCCCCCCCCCCN1C(=O)c2cc(Cl)c3c4c(Cl)cc5c6c(cc(Cl)c(c7c(Cl)cc(c2c37)C1=O)c64)C(=O)N(CCCCCCCCCCCC)C5=O` [Dodecyl (Formula 3), N,N′-didodecyl-1,6,7,12-tetrachloroperylene-3,4,9,10-dicarboximide], for which the “precipitation of the dye in the chemiluminescent composition” value in data set [2] was “no precipitates were formed even at low temperature”. Also, the “Solubility, 1,6,7,12-tetrahaloperylenedicarboximide of Formula 3 (X is Cl)” value in data set [1] was 65 g.
